As usually defined, the MIC is the least concentration at which growth counts as inhibited. A word on the pIC50: it is the negative decadic logarithm of the IC50, by convention in mol/L.

Assay [1] deals with Mycobacterium tuberculosis. The assay is described as follows: Antimycobacterial activity against Mycobacterium tuberculosis H37Rv expressing pFCA-luxAB after 10 days by luminescence-based low-oxygen recovery assay. To be noted: 240 h. Type of assay: functional.
Assay [2] has as its system Mycobacterium tuberculosis. As to the kind of experiment: Antimycobacterial activity against Mycobacterium tuberculosis H37Rv after 16 to 24 hrs by microplate alamar blue assay. In kind it is functional. Background: The colour change of resazurin is a common sign of viable cells or microbes.
The subject of assay [3] is Vero. The assay is described as follows: Cytotoxicity against african green monkey Vero cells after 72 hrs by tetrazolium dye assay. Type of assay: cell-based. The settings on record: Chlorocebus sabaeus.

pIC50: −log10 of the molar value. ≈ marks a conversion by molar mass, not a printed value.

For the compound `O=[N+]([O-])c1cn2c(n1)OC[C@@H](OCc1ccc(-c3ccc(OC(F)(F)F)cc3)s1)C2`, the MIC in assay [1] came to 2.6 µM (≈ 1.15 µg/mL); in assay [2], 0.85 µM (≈ 0.375 µg/mL). This compound had a pIC50 in assay [3] below 3.89.

As to `N#Cc1ccc(-n2cc(CO[C@@H]3COc4nc([N+](=O)[O-])cn4C3)nn2)cc1`, the MIC in assay [1] is 11 µM (≈ 4.04 µg/mL); in assay [2], 0.89 µM (≈ 0.327 µg/mL). Further, in assay [3], the pIC50 was below 3.89.

In the case of `Cn1nc(-c2ccc(C(F)(F)F)cc2)cc1CO[C@@H]1COc2nc([N+](=O)[O-])cn2C1`, the MIC in assay [1] was determined as 4.1 µM (≈ 1.74 µg/mL); in assay [2], 0.06 µM (≈ 0.0254 µg/mL). For the same compound, the pIC50 in assay [3] was below 3.89.

As for `O=[N+]([O-])c1cn2c(n1)OC[C@@H](OCc1csc(-c3ccc(OC(F)(F)F)cc3)n1)C2`, the MIC is 1.5 µM (≈ 0.664 µg/mL) in assay [1] and 1.2 µM (≈ 0.531 µg/mL) in assay [2]. In assay [3], the pIC50 was below 3.89.

Regarding `COc1ccc(-c2ncc(CO[C@@H]3COc4nc([N+](=O)[O-])cn4C3)n2C)cc1F`, the MIC in assay [1] is above 32 µM; in assay [2], 1.4 µM (≈ 0.565 µg/mL). In assay [3], this compound had a pIC50 below 3.89.

In assay [1], `N#Cc1ccc(-c2cccc(CO[C@@H]3COc4nc([N+](=O)[O-])cn4C3)c2)cc1` came in with an MIC of 4.8 µM (≈ 1.81 µg/mL). This compound also had a pIC50 in assay [3] below 3.89.

As for `Cn1c(CO[C@@H]2COc3nc([N+](=O)[O-])cn3C2)cnc1-c1ccc(C#N)cc1`, the figures for the MIC in assay [1] and in assay [2] were above 32 µM and 2.8 µM (≈ 1.07 µg/mL), respectively. Besides, the pIC50 in assay [3] was below 3.89.

`O=[N+]([O-])c1cn2c(n1)OC[C@@H](OCc1cc(-c3ccc(OC(F)(F)F)cc3)no1)C2`: the MIC in assay [1] is 1.2 µM (≈ 0.512 µg/mL); in assay [2] it was 0.55 µM (≈ 0.234 µg/mL). In addition, the pIC50 in assay [3] was below 3.89.

On to `COc1ccc(-c2ccc(CO[C@@H]3COc4nc([N+](=O)[O-])cn4C3)s2)cc1F`, for which the values for the MIC in assay [1] and in assay [2] were 1 µM (≈ 0.405 µg/mL) and 0.06 µM (≈ 0.0243 µg/mL), respectively. In assay [3], this compound showed a pIC50 below 3.89.

As for `O=[N+]([O-])c1cn2c(n1)OC[C@@H](OCc1ccc(-c3ccc(F)cc3)s1)C2`, the results for the MIC in assay [1] and in assay [2] were 1.9 µM (≈ 0.713 µg/mL) and 0.05 µM (≈ 0.0188 µg/mL), respectively. The pIC50 in assay [3] was below 3.89.

In the case of `O=[N+]([O-])c1cn2c(n1)OC[C@@H](OCc1nnn(-c3ccc(F)cc3)n1)C2`, the MIC was 3.4 µM (≈ 1.23 µg/mL) in assay [1] and 0.29 µM (≈ 0.105 µg/mL) in assay [2]. In assay [3], this compound showed a pIC50 below 3.89.

`O=[N+]([O-])c1cn2c(n1)OC[C@@H](OCc1cnn(-c3ccc(OC(F)(F)F)cc3)n1)C2`: the MIC in assay [1] came to 1.6 µM (≈ 0.682 µg/mL); in assay [2], 0.03 µM (≈ 0.0128 µg/mL). The pIC50 in assay [3] is below 3.89.

In the case of `COc1ccc(-c2nc(CO[C@@H]3COc4nc([N+](=O)[O-])cn4C3)cs2)cn1`, the MIC is 4.5 µM (≈ 1.75 µg/mL) in assay [1] and 1.4 µM (≈ 0.545 µg/mL) in assay [2]. Besides, in assay [3], the pIC50 is below 3.89.

Take `O=[N+]([O-])c1cn2c(n1)OC[C@@H](OCc1cnn(-c3ccc(F)cc3)n1)C2`: the MIC is 1.4 µM (≈ 0.504 µg/mL) in assay [1] and 0.17 µM (≈ 0.0613 µg/mL) in assay [2]. This compound also had a pIC50 in assay [3] below 3.89.

Consider `O=[N+]([O-])c1cn2c(n1)OC[C@@H](OCc1cn(-c3ccc(F)cc3)nn1)C2`, for which the MIC is 6.9 µM (≈ 2.49 µg/mL) in assay [1] and 1.2 µM (≈ 0.432 µg/mL) in assay [2]. Further, the pIC50 in assay [3] is below 3.89.

For `O=[N+]([O-])c1cn2c(n1)OC[C@@H](OCc1nnn(-c3ccccc3)n1)C2`, the MIC came out at 5.7 µM (≈ 1.96 µg/mL) in assay [1] and 1.2 µM (≈ 0.412 µg/mL) in assay [2]. In assay [3], this compound had a pIC50 below 3.89.

Turning to `O=[N+]([O-])c1cn2c(n1)OC[C@@H](OCc1ccc(-c3ccc(OC(F)F)cc3)s1)C2`, the MIC in assay [1] worked out at 0.58 µM (≈ 0.246 µg/mL); in assay [2], 0.86 µM (≈ 0.364 µg/mL). In assay [3], this compound showed a pIC50 below 3.89.

With `Cn1nc(-c2ccc(F)cc2)cc1CO[C@@H]1COc2nc([N+](=O)[O-])cn2C1`, the MIC came to 4 µM (≈ 1.49 µg/mL) in assay [1] and 0.36 µM (≈ 0.134 µg/mL) in assay [2]. This compound had a pIC50 in assay [3] below 3.89.

As to `COc1ccc(-c2cccc(CO[C@@H]3COc4nc([N+](=O)[O-])cn4C3)c2)cc1F`, inhibition of growth in assay [1] (MIC) required 2.2 µM (≈ 0.879 µg/mL). Moreover, the pIC50 in assay [3] is below 3.89.

With `O=[N+]([O-])c1cn2c(n1)OC[C@@H](OCc1csc(-c3ccc(F)cc3)n1)C2`, the MIC in assay [1] turned out to be 2.8 µM (≈ 1.05 µg/mL); in assay [2], 0.35 µM (≈ 0.132 µg/mL). Further, the pIC50 in assay [3] is below 3.89.

Take `O=[N+]([O-])c1cn2c(n1)OC[C@@H](OCc1cnn(-c3ccccc3)n1)C2`: the values for the minimum inhibitory concentration (MIC) in assay [1] and in assay [2] were 2.2 µM (≈ 0.753 µg/mL) and 0.25 µM (≈ 0.0856 µg/mL), respectively. The same compound had a pIC50 in assay [3] below 3.89.

In the case of `O=[N+]([O-])c1cn2c(n1)OC[C@@H](OCc1cccc(-c3ccc(OC(F)(F)F)cc3)c1)C2`, the MIC in assay [1] amounted to 2.2 µM (≈ 0.958 µg/mL). In addition, the pIC50 in assay [3] was below 3.89.

For the compound `O=[N+]([O-])c1cn2c(n1)OC[C@@H](OCc1ccc(-c3cncc(F)c3)s1)C2`, the MIC worked out at 2.3 µM (≈ 0.866 µg/mL) in assay [1] and 0.87 µM (≈ 0.327 µg/mL) in assay [2]. The pIC50 in assay [3] was below 3.89.

For `O=[N+]([O-])c1cn2c(n1)OC[C@@H](OCc1ccc(-c3ccc(F)nc3)s1)C2`, the values for the MIC in assay [1] and in assay [2] were 2.3 µM (≈ 0.866 µg/mL) and 0.86 µM (≈ 0.324 µg/mL), respectively. Further, the pIC50 in assay [3] was below 3.89.

As to `COc1ccc(-n2cc(CO[C@@H]3COc4nc([N+](=O)[O-])cn4C3)nn2)cn1`, the MIC came out at 12 µM (≈ 4.48 µg/mL) in assay [1] and 1.6 µM (≈ 0.597 µg/mL) in assay [2]. For the same compound, the pIC50 in assay [3] is below 3.89.

Regarding `N#Cc1ccc(-c2nc(CO[C@@H]3COc4nc([N+](=O)[O-])cn4C3)cs2)cc1`, the MIC is 3.2 µM (≈ 1.23 µg/mL) in assay [1] and 0.67 µM (≈ 0.257 µg/mL) in assay [2]. Moreover, the pIC50 in assay [3] is below 3.89.

As for `Cn1c(CO[C@@H]2COc3nc([N+](=O)[O-])cn3C2)cnc1-c1ccc(F)cc1`, the MIC in assay [1] amounted to 31 µM (≈ 11.6 µg/mL); in assay [2], 1.9 µM (≈ 0.709 µg/mL). In assay [3], the pIC50 is below 3.89.

As for `COc1ccc(-n2cc(CO[C@@H]3COc4nc([N+](=O)[O-])cn4C3)nn2)cc1F`, the results for the MIC in assay [1] and in assay [2] were 8.7 µM (≈ 3.4 µg/mL) and 0.86 µM (≈ 0.336 µg/mL), respectively. The pIC50 in assay [3] is below 3.89.

Take `O=[N+]([O-])c1cn2c(n1)OC[C@@H](OCc1cnn(-c3ccc(F)cc3)c1)C2`: the MIC in assay [1] came out at 3.9 µM (≈ 1.4 µg/mL); in assay [2], 0.8 µM (≈ 0.287 µg/mL). The compound further gave a pIC50 in assay [3] below 3.89.

On to `Cn1c(CO[C@@H]2COc3nc([N+](=O)[O-])cn3C2)cnc1-c1ccc(OC(F)(F)F)cc1`, for which the results for the MIC in assay [1] and in assay [2] were 7.4 µM (≈ 3.25 µg/mL) and 1.1 µM (≈ 0.483 µg/mL), respectively. The compound further showed a pIC50 in assay [3] below 3.89.

Regarding `COc1ccc(-c2nc(CO[C@@H]3COc4nc([N+](=O)[O-])cn4C3)cs2)cc1F`, the MIC in assay [1] was 1.7 µM (≈ 0.691 µg/mL); in assay [2], 0.2 µM (≈ 0.0813 µg/mL). The same compound had a pIC50 in assay [3] below 3.89.

As for `COc1ccc(-c2cc(CO[C@@H]3COc4nc([N+](=O)[O-])cn4C3)on2)cc1F`, the MIC in assay [1] stood at 2 µM (≈ 0.781 µg/mL); in assay [2], 1.1 µM (≈ 0.429 µg/mL). This compound showed a pIC50 in assay [3] below 3.89.

`N#Cc1ccc(-c2cc(CO[C@@H]3COc4nc([N+](=O)[O-])cn4C3)on2)cc1`: the values for the MIC in assay [1] and in assay [2] were 6.2 µM (≈ 2.28 µg/mL) and 1.4 µM (≈ 0.514 µg/mL), respectively. The pIC50 in assay [3] is below 3.89.

Take `O=[N+]([O-])c1cn2c(n1)OC[C@@H](OCc1ccc(-c3cc(C(F)(F)F)ccn3)s1)C2`: the MIC in assay [1] was found to be 1.7 µM (≈ 0.725 µg/mL); in assay [2] it was 0.28 µM (≈ 0.119 µg/mL). In addition, the pIC50 in assay [3] is below 3.89.

Turning to `O=[N+]([O-])c1cn2c(n1)OC[C@@H](OCc1cc(-c3ccc(F)cc3)no1)C2`, the MIC in assay [1] is 1.9 µM (≈ 0.685 µg/mL); in assay [2], 1.5 µM (≈ 0.54 µg/mL). In assay [3], this compound showed a pIC50 below 3.89.

Consider `COc1ccc(-c2cc(CO[C@@H]3COc4nc([N+](=O)[O-])cn4C3)on2)cn1`, for which the MIC in assay [1] stood at 4.1 µM (≈ 1.53 µg/mL); in assay [2] it was 2 µM (≈ 0.747 µg/mL). This compound gave a pIC50 in assay [3] below 3.89.

For the compound `O=[N+]([O-])c1cn2c(n1)OC[C@@H](OCc1ccn(-c3ccc(F)cc3)n1)C2`, the MIC in assay [1] came out at 7.2 µM (≈ 2.59 µg/mL); in assay [2], 0.11 µM (≈ 0.0395 µg/mL). The compound further showed a pIC50 in assay [3] below 3.89.

The values above are taken from ChEMBL document CHEMBL1156790, “Synthesis and structure-activity relationships of antitubercular 2-nitroimidazooxazines bearing heterocyclic side chains” (J Med Chem, 2010).
